Measured values taken from patent publication US20080045605A1, “Image Quality in the Eye” (priority 2004, published 2008).

System: human eye
Experiment: higher-order wavefront aberrations (rms) measured with a wavefront analyzer in subjects treated for 6 months
Assay type: in vivo
Conditions: human subjects treated for 6 months; 20 mg/day zeaxanthin (Z), 20 mg/day lutein (L), or 10 mg lutein+10 mg zeaxanthin per day (C, P-C); versus placebo; FIG. 1
Description: The wavefront aberration function is a way of quantifying the imperfections of the optics of the eye that cause degradation of retinal image quality. The “ideal” wavefront is generated when a “point” on the retina is imaged through the optics of the eye as a plane and flat surface just outside the eye. This means that all the rays emerging from the eye form a parallel bundle and are perpendicular to this plane. The “real” wavefront surface is not a perfect two-dimensional plane and reflects the aberrations present in the optical system. It is usually represented mathematically by a series of terms known as Zernike polynomials. A knowledge of the coefficients of the Zernike polynomials provides a complete description of the wavefront surface. In order to obtain one single number that describes the quality of the imaging system (in this case the human eye) the root mean square (rms) deviation is calculated by computing the root of the mean of the squares of the actual deviations from the ideal plane. The rms value is equivalent to a standard deviation, but the two functions compared are 2D surfaces (i.e., the ideal wavefront and the actual wavefront). The wavefront aberrations are measured with a wavefront analyzer (see, e.g., J. Refract. Surg. 2001; 17(5), S608-S612). […]

| SMILES | higher-order wavefront aberrations in the human eye |
| --- | --- |
| CC1=C(/C=C/C(C)=C/C=C/C(C)=C/C=C/C=C(C)/C=C/C=C(C)/C=C/C2=C(C)C[C@@H](O)CC2(C)C)C(C)(C)C[C@H](O)C1 [zeaxanthin] | reduction of higher-order wavefront aberrations |
| CC1=C[C@H](O)CC(C)(C)[C@H]1/C=C/C(C)=C/C=C/C(C)=C/C=C/C=C(C)/C=C/C=C(C)/C=C/C1=C(C)C[C@@H](O)CC1(C)C [lutein] | reduction of higher-order wavefront aberrations |
